{
  "source": "patent EP0583821A1",
  "about": "“Atriopeptins, guanylate cyclase activators, and phosphodiesterase inhibitors as treatment for glaucoma, hydrocephalus and cerebral edema (cranial fluid volume dysfunction)” (THE GENERAL HOSPITAL CORPORATION, priority 1987, dated 1988)",
  "key": {"albino rabbits": {"tested_on": "albino rabbits", "assay": "Intraocular pressure after unilateral intravitreal injection", "format": "in vivo, rabbit", "protocol": "The measurement of intraocular pressure (IOP), was performed using procedures similar to those described in Nathanson, Brit. J. Pharmacol., 73:97 (1981) and Nathanson, Current Eye Res., 4:191 (1985). Briefly, male (3-5 kg), New Zealand white rabbits were housed under standard conditions and exposed to a 12 hr light-dark cycle. IOP was measured with a Perkins applanation tonometer after topical anesthesia with 0.4% benoxinate (and 0.25% sodium fluorescein). The tonometer had been calibrated previously by connecting the anterior chamber of enucleated rabbit eyes to a manometer (and reservoir) and taking tonometer readings at different pressures. A number of preliminary IOP readings were made in order to accommodate the animals to the measurement procedure. Readings were then taken just prior to drug or vehicle injection and at 3, 9, 20, 27, 44, 51, 72, and 144 hours post-injection.\nFollowing topical anesthesia with 0.4% benoxinate, rabbits received rat atrial natriuretic peptide 1-28 (rANP) via a 10 microliter, intravitreal injection, through a 30g 1/2\" needle, the tip of which was positioned at the approximate center of the eye. Drug was dissolved in a solution of artificial aqueous humor containing (in mmol/liter): NaCl 130, KCl 2.7, […] 18.3, MgCl₂ 1.33, CaCl₂ 1.5, Glucose 10, HEPES 20, and L-ascorbic acid, 2.5. The contralateral eye received a 10 microliter injection of vehicle alone. In order to evaluate the possible effects of intravitreal injection, per se, on IOP, additional rabbits received a 10 microliter intravitreal injection of vehicle in one eye only.\nThe contralateral eye received intravitreal injection of vehicle alone. Over a period of 9 hours, the ipsilateral eyes underwent a marked decline in pressure of about 5mm (Hg). This degree of hypotension persisted until about 48 hours post-injection and then underwent a slow recovery over the following four days. The decrease in pressure, compared with pre-injection IOP, was statistically significant at all time points from 3 to 72 hours post-injection. Values shown are mean ± SEM. Filled circles represent the IOP in the ipsilateral eye; open circles represent the IOP in the contralateral eye. *(p < .05); **(p < .01), for paired Students T-test relative to preinjection pressure (time 0). […] During the entire period, no affect on pupillary diameter of either the ipsilateral or contralateral eye was noted.\nThis contralateral decrease was statistically significant (p <.05 vs. pre-injection IOP) at 20 and 44 hours following injection. […]"}, "guanylate cyclase": {"biological_target": "T1, guanylate cyclase (Oryctolagus cuniculus, UniProt G1TXB5)", "T1 sequence (G1TXB5 28-1056)": "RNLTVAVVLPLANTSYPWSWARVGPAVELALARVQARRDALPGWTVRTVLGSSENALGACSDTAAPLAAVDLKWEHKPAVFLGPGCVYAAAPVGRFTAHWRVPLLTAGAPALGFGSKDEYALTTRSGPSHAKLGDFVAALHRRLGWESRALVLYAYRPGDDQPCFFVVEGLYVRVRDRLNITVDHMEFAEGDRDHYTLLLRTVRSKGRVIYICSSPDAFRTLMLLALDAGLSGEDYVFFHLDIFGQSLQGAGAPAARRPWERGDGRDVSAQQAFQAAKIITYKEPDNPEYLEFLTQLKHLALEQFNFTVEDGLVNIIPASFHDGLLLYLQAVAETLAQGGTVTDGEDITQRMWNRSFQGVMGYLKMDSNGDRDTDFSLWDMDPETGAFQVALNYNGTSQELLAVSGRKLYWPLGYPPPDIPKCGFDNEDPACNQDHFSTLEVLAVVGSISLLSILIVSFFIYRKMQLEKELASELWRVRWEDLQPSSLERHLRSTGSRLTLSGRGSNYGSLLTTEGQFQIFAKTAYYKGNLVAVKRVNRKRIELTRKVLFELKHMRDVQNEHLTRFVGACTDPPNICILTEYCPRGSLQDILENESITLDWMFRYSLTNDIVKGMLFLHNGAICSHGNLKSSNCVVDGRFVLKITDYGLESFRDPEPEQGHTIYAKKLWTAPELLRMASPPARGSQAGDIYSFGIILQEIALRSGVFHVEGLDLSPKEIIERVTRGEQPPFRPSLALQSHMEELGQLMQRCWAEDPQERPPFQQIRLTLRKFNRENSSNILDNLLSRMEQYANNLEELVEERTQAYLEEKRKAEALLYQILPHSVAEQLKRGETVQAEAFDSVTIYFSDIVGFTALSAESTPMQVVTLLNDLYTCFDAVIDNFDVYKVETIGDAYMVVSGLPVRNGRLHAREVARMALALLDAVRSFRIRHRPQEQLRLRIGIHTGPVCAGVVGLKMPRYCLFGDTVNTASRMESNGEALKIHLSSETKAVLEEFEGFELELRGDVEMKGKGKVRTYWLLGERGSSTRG", "assay": "Guanylate cyclase in membranes of ventral superior sagittal dural sinus (arachnoid villi)", "format": "biochemical, pig or rabbit", "details": "small stimulation only at high concentrations; 4 min", "protocol": "The effect of rANP on membrane-bound guanylate cyclase and adenylate cyclase activity in various brain-barrier tissues and tissue fractions from rabbit was compared with its activity in cerebrum and cerebellum. Guanylate cyclase was measured as the rate of cyclic GMP formation by modifications of the technique of Waldman et al., supra, incorporated herein by reference. Briefly, tissues were homogenized (10 mg wet weight per milliliter) in 50 mM tris-HCl, pH 8.0, 1 mM EDTA, 1 mM dithiothreitol, and 250 mM sucrose and centrifuged at 100,000g to obtain a P1 pellet. Reaction tubes contained (in 0.3 ml), 50 mM tris, pH 7.6, 6 mM MnCl₂, 0.5 mM 3-isobutyl, 1-methylxanthine (IBMX), 10 mM theophylline, 3 mM GTP, hormone (in 0.03 ml containing 2.5 mM ascorbic acid and 0.1% bovine serum albumin), and 0.06 ml of P1 fraction (40 to 60 ug of protein). The reaction (4 minutes at 30°C) was started by addition of GTP and terminated by addition of 0.3 ml of 150 mM sodium acetate (pH 4.0) and boiling for 3 minutes. Cyclic GMP formed was subsequently measured by radioimmunoassay as described in example 6, infra. Under these conditions, guanylate cyclase activity was linear with time and tissue concentration. Adenylate cyclase activity in P1 fractions was measured according to the method described by Nathanson, et al., Science; 204:843 (1979); Mol. Pharmacol. 18:199 (1980), see Figure 1C . […] Neurosci. […]"}},
  "data": [
    {"substance": "Ser-Leu-Arg-Arg-atriopeptin III (APIII) [rANP 1-28]", "values": [
      {"measurement": "persistence of hypotension post-injection", "setting": "albino rabbits; 0.3 nmoles intravitreal", "value": "about 48 hours"},
      {"measurement": "IOP in the contralateral, vehicle-injected eye", "setting": "albino rabbits; 0.3 nmoles intravitreal in ipsilateral eye", "value": "also showed a decrease"},
      {"measurement": "decline in intraocular pressure, ipsilateral eye", "setting": "albino rabbits; 0.3 nmoles intravitreal, eight albino rabbits, over a period of 9 hours", "value": "about 5 mm (Hg)"},
      {"measurement": "effect on pupillary diameter", "setting": "albino rabbits; ipsilateral or contralateral eye, entire period", "value": "no affect"},
      {"measurement": "Ka", "setting": "guanylate cyclase", "value": "> 1000", "unit": "nM"}
    ]}
  ]
}
